Like-named read-outs stand apart in the source and are kept apart here.
Target: T1, Androgen Receptor (Homo sapiens, UniProt P10275)
T1 construct: endogenous in cells; host or cells: VCaP cells
T1 sequence (P10275 1-920): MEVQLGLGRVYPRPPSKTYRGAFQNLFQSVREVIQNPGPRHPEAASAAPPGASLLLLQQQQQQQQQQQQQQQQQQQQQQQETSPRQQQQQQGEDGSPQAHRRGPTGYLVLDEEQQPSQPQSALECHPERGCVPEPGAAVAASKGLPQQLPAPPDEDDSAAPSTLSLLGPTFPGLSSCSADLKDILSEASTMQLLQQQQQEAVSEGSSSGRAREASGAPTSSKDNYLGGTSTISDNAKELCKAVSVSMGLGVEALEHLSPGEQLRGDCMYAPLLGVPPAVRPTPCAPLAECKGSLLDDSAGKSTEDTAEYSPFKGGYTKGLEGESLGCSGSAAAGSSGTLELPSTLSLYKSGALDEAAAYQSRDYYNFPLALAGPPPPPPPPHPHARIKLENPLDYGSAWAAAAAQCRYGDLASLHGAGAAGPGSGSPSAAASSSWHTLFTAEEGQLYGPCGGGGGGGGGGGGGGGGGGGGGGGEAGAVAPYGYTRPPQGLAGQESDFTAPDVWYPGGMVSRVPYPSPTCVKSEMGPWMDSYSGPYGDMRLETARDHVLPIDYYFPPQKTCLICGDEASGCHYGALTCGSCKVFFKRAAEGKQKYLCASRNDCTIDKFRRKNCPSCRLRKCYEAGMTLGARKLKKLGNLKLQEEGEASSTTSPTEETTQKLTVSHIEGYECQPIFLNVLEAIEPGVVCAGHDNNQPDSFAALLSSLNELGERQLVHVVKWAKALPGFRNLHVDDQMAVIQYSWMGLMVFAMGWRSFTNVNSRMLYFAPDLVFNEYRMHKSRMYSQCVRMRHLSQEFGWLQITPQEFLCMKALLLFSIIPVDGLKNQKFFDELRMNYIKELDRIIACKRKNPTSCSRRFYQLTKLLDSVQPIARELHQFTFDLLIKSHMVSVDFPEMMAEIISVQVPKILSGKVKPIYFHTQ
Assay: Androgen Receptor ELISA assay (PathScan AR ELISA) in VCaP cells: AR degradation, Dmax and DC50
Format: cell-based
Outline: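 After 24 h exposure of VCaP cells (charcoal-stripped serum, 0.1 nM R1881 agonist, 0.1% DMSO) to seven half-log compound concentrations, residual AR in lysates was measured by PathScan ELISA (TMB absorbance, 450 nm). Cells were plated at 30,000/well and grown at least 3 days beforehand.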

[1] = VCaP cells; Table 36; read-out: VCaP DC50
[2] = VCaP, VCaP cells; Table 36; read-out: VCaP Dmax (%)
[3] = read-out: VCaP DC50; VCaP cells; Table 36

SMILES	DC50 [1]	Dmax [2]	also measured
Cc1ncsc1-c1ccc(CNC(=O)[C@@H]2C[C@@H](O)CN2C(=O)[C@@H](NC(=O)CN2CCC3(CC2)CCN(c2ccc(C(=O)N[C@H]4C(C)(C)[C@H](Oc5ccc(C#N)c(Cl)c5)C4(C)C)cn2)CC3)C(C)(C)C)cc1 [Example 672, N-((1r,3r)-3-(3-chloro-4-cyanophenoxy)-2,2,4,4-tetramethylcyclobutyl)-6-(9-(2-(((S)-1-((2S,4R)-4-hydroxy-2-((4-(4-methylthiazol-5-yl)benzyl)carbamoyl)pyr-rolidin-1-yl)-3,3-dimethyl-1-oxobutan-2-yl)amino)-2-oxoethyl)-3,9-diazaspiro[5.5]undecan-3-yl)nicotinamide]	< 50 nM	51 to 70%	–
Cc1ncsc1-c1ccc([C@H](C)NC(=O)C2C[C@@H](O)CN2C(=O)[C@@H](NC(=O)CN2CCN(CCC3(c4ccc(C(=O)N[C@H]5C(C)(C)[C@H](Oc6ccc(C#N)c(C(F)(F)F)c6)C5(C)C)cc4)COC3)CC2)C(C)(C)C)cc1 (stereo partly drawn) [Example 674, (2S,4R)-1-((S)-2-(2-(4-(2-(3-(4-(((1r,3r)-3-(4-cyano-3-(trifluoromethyl)phenoxy)-2,2,4,4-tetramethylcyclobutyl)carbamoyl)phenyl)oxetan-3-yl)ethyl)piperazin-1-yl)acetamido)-3,3-dimethylbutanoyl)-4-hydroxy-N-((S)-1-(4-(4-methylthiazol-5-yl)phenyl)ethyl)pyrrolidine-2-carboxamide]	< 50 nM	–	Dmax (VCaP, read-out: VCaP Dmax (%)): 51 to 70%
Cc1ncsc1-c1ccc([C@H](C)NC(=O)[C@@H]2C[C@@H](O)CN2C(=O)[C@@H](NC(=O)CN2CCO[C@H](CN3CCO[C@H](COc4ccc(N5C(=S)N(c6ccc(C#N)c(C(F)(F)F)c6)C(=O)C5(C)C)cc4)C3)C2)C(C)(C)C)cc1 [Example 675, (2S,4R)-1-((S)-2-(2-((R)-2-(((S)-2-((4-(3-(4-cyano-3-(trifluoromethyl)phenyl)-5,5-dimethyl-4-oxo-2-thioxoimidazolidin-1-yl)phenoxy)methyl)mor-pholino)methyl)mor-pholino)acetamido)-3,3-dimethylbutanoyl)-4-hydroxy-N-((S)-1-(4-(4-methylthiazol-5-yl)phenyl)ethyl)pyrrolidine-2-carboxamide]	–	–	DC50 [3]: > 501 nM
Cc1ncsc1-c1ccc([C@H](C)NC(=O)[C@@H]2C[C@@H](O)CN2C(=O)[C@@H](NC(=O)CN2CCO[C@@H](CN3CCO[C@H](COc4ccc(N5C(=O)N(c6ccc(C#N)c(C(F)(F)F)c6)C(=O)C5(C)C)cc4)C3)C2)C(C)(C)C)cc1 [Example 676, (2S,4R)-1-((S)-2-(2-((S)-2-(((S)-2-((4-(3-(4-cyano-3-(trifluoromethyl)phenyl)-5,5-dimethyl-4-oxo-2-thioxoimidazolidin-1-yl)phenoxy)methyl)mor-pholino)methyl)mor-phpolino)acetamido)-3,3-dimethylbutanoyl)-4-hydroxy-N-((S)-1-(4-(4-methylthiazol-5-yl)phenyl)ethyl)pyrrolidine-2-carboxamide]	–	–	DC50 [3]: > 501 nM
Cc1ncsc1-c1ccc([C@H](C)NC(=O)[C@@H]2C[C@@H](O)CN2C(=O)[C@@H](NC(=O)OCc2ccccc2)[C@@H](C)OCCCCCCOc2ccc(N3C(=O)N(c4ccc(C#N)c(C(F)(F)F)c4)C(=O)C3(C)C)cc2)cc1 [Example 677, benzyl ((2S,3R)-3-((6-(4-(3-(4-cyano-3-(trifluoromethyl)phenyl)-5,5-dimethyl-4-oxo-2-thioxoimidazolidin-1-yl)phenoxy)hexyl)oxy)-1-((2S,4R)-4-hydroxy-2-(((S)-1-(4-(4-methylthiazol-5-yl)phenyl)ethyl)carbam-oyl)pyrrolidin-1-y)-1-oxobutan-2-yl)carbamate]	–	–	DC50 [3]: > 501 nM
Cc1ncsc1-c1ccc([C@H](C)NC(=O)[C@@H]2C[C@@H](O)CN2C(=O)[C@@H](NC(=O)C(=O)N2CCN(CCOc3ccc(C(=O)N[C@H]4C(C)(C)[C@H](Oc5ccc(C#N)c(C(F)(F)F)c5)C4(C)C)cc3)CC2)C(C)(C)C)cc1 [Example 679, (2S,4R)-1-((S)-2-(2-(4-(2-(4-(((1r,3r)-3-(4-cyano-3-(trifluoromethyl)phenoxy)-2,2,4,4-tetramethylcyclobutyl)carbamoyl)phenoxy)eth-yl)piperazin-1-yl)-2-oxoacetamido)-3,3-dimethylbutanoyl)-4-hydroxy-N-((S)-1-(4-(4-methylthiazol-5-yl)phenyl)ethyl)pyrrolidine-2-carboxamide]	> 501 nM	–	–

Second part, led by results:

DC50 [1]	Dmax [2]	SMILES	also measured
< 50 nM	51 to 70%	Cc1ncsc1-c1ccc(CNC(=O)[C@@H]2C[C@@H](O)CN2C(=O)[C@@H](NC(=O)COCCN2C[C@H]3C[C@@H]2CN3c2ccc(C(=O)N[C@H]3C(C)(C)[C@H](Oc4ccc(C#N)c(Cl)c4)C3(C)C)cn2)C(C)(C)C)cc1 [Example 669, N-((1r,3R)-3-(3-chloro-4-cyanophenoxy)-2,2,4,4-tetramethylcyclobutyl)-6-((1R,4R)-5-(2-(2-(((S)-1-((2S,4R)-4-hydroxy-2-((4-(4-methylthiazol-5-yl)benzyl)carbamoyl)pyrrolidin-1-yl)-3,3-dimethyl-1-oxobutan-2-yl)amino)-2-oxoethoxy)ethyl)-2,5-diazabicyclo[2.2.1]hept-an-2-yl)nicotinamide]	–
> 501 nM	< 25%	Cc1ncsc1-c1ccc([C@H](C)NC(=O)[C@@H]2C[C@@H](O)CN2C(=O)[C@@H](NC(=O)COCCCCCNc2ccc(C(=O)N[C@H]3C(C)(C)[C@H](Oc4ccc(C#N)c(Cl)c4)C3(C)C)nc2)C(C)C)cc1 [Example 670, N-((1r,3r)-3-(3-chloro-4-cyanophenoxy)-2,2,4,4-tetramethylcyclobutyl)-5-((5-(2-(((S)-1-((2S,4R)-4-hydroxy-2-(((S)-1-(4-(4-methylthiaozl-5-yl)phenyl)ethyl)carbam-oyl)pyrrolidin-1-yl)-3-methyl-1-oxobutan-2-yl)amino)-2-oxoethoxy)pentyl)amino) picolinamide]	–
< 50 nM	> 71%	Cc1ncsc1-c1ccc(C(CO)NC(=O)C2C[C@@H](O)CN2C(=O)[C@@H](NC(=O)COCCN2CCN(c3ccc(C(=O)N[C@H]4C(C)(C)[C@H](Oc5ccc(C#N)c(Cl)c5)C4(C)C)cn3)CC2)C(C)(C)C)cc1 (stereo partly drawn) [Example 671, N-((1r,3r)-3-(3-chloro-4-cyanophenoxy)-2,2,4,4-tetramethylcyclobutyl)-6-(4-(2-(2-(((S)-1-((2S,4R)-4-hydroxy-2-((2-hydroxy-1-(4-(4-methylthiazol-5-yl)phenyl)ethyl)carbam-oyl)pyrrolidin-1-yl)-3,3-dimethyl-1-oxobutan-2-yl)amino)-2-oxoethoxy)ethyl)pipera-zin-1-yl)nicotinamide]	–
< 50 nM	> 71%	C[C@H](NC(=O)[C@@H]1C[C@@H](O)CN1C(=O)[C@@H](NC(=O)COCCN1CCN(c2ccc(C(=O)N[C@H]3C(C)(C)[C@H](Oc4ccc(C#N)c(Cl)c4)C3(C)C)cn2)CC1)C(C)(C)C)c1ccc(-c2scnc2CO)cc1 [Example 673, N-((1r,3r)-3-(3-chloro-4-cyanophenoxy)-2,2,4,4-tetramethylcyclobutyl)-6-(4-(2-(2-(((S)-1-((2S,4R)-4-hydroxy-2-(((S)-1-(4-(4-(hydroxymethyl)thiazol-5-yl)phenyl)ethyl)carbam-oyl)pyrrolidin-1-yl)-3,3-dimethyl-1-oxobutan-2-yl)amino)-2-oxoethoxy)ethyl)pipera-zin-1-yl)nicotinamide]	–
> 501 nM	–	Cc1ncsc1-c1ccc([C@H](C)NC(=O)[C@@H]2C[C@@H](O)CN2C(=O)[C@@H](NC(=O)COCCN(C)CCCc2ccc(C(=O)N[C@H]3C(C)(C)[C@H](Oc4ccc(C#N)c(Cl)c4)C3(C)C)nc2)C(C)(C)C)cc1 [Example 678, N-((1r,3r)-3-(3-chloro-4-cyanophenoxy)-2,2,4,4-tetramethylcyclobutyl)-5-(3-((2-(2-(((S)-1-((2S,4R)-4-hydroxy-2-(((S)-1-(4-(4-methylthiazol-5-yl)phenyl)ethyl)carbam-oyl)pyrrolidin-1-yl)-3,3-dimethyl-1-oxobutan-2-yl)amino)-2-oxoethoxy)ethyl)(meth-yl)amino)propyl)picolin-amide]	–
< 50 nM	–	Cc1cc(O[C@H]2C(C)(C)[C@H](NC(=O)c3ccc(N4CCN(CCOCC(=O)N[C@H](C(=O)N5C[C@H](O)C[C@H]5C(=O)N[C@@H](C)c5ccc(-c6scnc6C)cc5)C(C)(C)C)CC4)nc3)C2(C)C)ccc1C#N [Example 680, N-((1r,3r)-3-(4-cyano-3-methylphenoxy)-2,2,4,4-tetramethylcyclobutyl)-6-(4-(2-(2-(((S)-1-((2S,4R)-4-hydroxy-2-(((S)-1-(4-(4-methylthiazol-5-yl)phenyl)ethyl)carbam-oyl)pyrrolidin-1-yl)-3,3-dimethyl-1-oxobutan-2-yl)amino)-2-oxoethoxy)ethyl)pipera-zin-1-yl)nicotinamide]	Dmax (VCaP, read-out: VCaP Dmax (%), VCaP cells; Table 36): > 71%

Source: patent US11427548B2 (Arvinas Operations, Inc., priority 2015, dated 2022)
